# Laboratory results reported in patent US20190119284A1, “ErbB Inhibitors and Uses Thereof” (The Regents of the University of California, priority 2016, published 2019).
# pIC50: −log10 of the molar value. Read-outs that look alike come from different tables or passages of the source.
# What was measured:
# Type in all cases: cell-based
# HER2+/2VE Ba/F3 line = assay: Ba/F3 proliferation assay, HER2+/2VE; conditions: Tables 7 and 8
# Procedure: (§1) Proliferation Assays. For adherent cell lines, cells were plated onto opaque white 96 well plates (Greiner cat #655083) and allowed to adhere overnight. The following day media was changed to fresh media that contained either DMSO or the indicated concentration of drug plus NRG (50 ng/mL final concentration) as indicated. Plates were incubated at 37° C. for 72 h and proliferation was read out using Cell Titer Glo (Promega) according to the manufacturer's protocol. For Ba/F3 cell proliferation, cells, drug dilution, and any necessary growth factors (10 ng/mL IL-3 or 6.25 ng/mL NRG) were combined in a well of a 96 well plate. Plates were incubated at 37° C. for 48 h and proliferation was read out using Cell Titer Glo according to the manufacturer's protocol. For all normalized assays, proliferation was normalized to the DMSO control condition. All graphs were plotted in GraphPad Prism 6 and fit with a non-linear regression of the log(inhibitor) vs response with a variable slope where shown. All graphs are averages (+/−standard deviation) of biological triplicates each performed in technical triplicate unless otherwise noted. If only one biological replicate was performed standard deviations were derived from the technical replicates.
# [1] = test system: parental Ba/F3 cells + IL-3; assay: Ba/F3 proliferation assay, Parental + IL-3; conditions: Tables 7 and 8, read-out: Ba/F3 line IC50, Parental + IL-3
# Procedure: (§2) To validate the screen and test the effectiveness of counter-screening with either the same 2YF/3wt Ba/F3 cell line or the parental Ba/F3's in the presence of IL-3 to remove cytotoxic primary hits, we first tested a panel of kinase inhibitors with established mechanisms of action.
# as §1
# [2] = biological target: 2YF/3wt + NRG Ba/F3 cells (HER2YF/HER3wt) (Homo sapiens, UniProt P04626, Y1005F/Y1023F/Y1112F/Y1127F/Y1139F/Y1196F/Y1221F/Y1222F/Y1248F, cells depend on it); assay: Ba/F3 proliferation assay, 2YF/3wt + NRG; conditions: Tables 7 and 8; read-out: Ba/F3 line IC50, HER2YF/HER3 + NRG
# Chain of 2YF/3wt + NRG Ba/F3 cells (HER2YF/HER3wt) (P04626 whole entry Y1005F/Y1023F/Y1112F/Y1127F/Y1139F/Y1196F/Y1221F/Y1222F/Y1248F): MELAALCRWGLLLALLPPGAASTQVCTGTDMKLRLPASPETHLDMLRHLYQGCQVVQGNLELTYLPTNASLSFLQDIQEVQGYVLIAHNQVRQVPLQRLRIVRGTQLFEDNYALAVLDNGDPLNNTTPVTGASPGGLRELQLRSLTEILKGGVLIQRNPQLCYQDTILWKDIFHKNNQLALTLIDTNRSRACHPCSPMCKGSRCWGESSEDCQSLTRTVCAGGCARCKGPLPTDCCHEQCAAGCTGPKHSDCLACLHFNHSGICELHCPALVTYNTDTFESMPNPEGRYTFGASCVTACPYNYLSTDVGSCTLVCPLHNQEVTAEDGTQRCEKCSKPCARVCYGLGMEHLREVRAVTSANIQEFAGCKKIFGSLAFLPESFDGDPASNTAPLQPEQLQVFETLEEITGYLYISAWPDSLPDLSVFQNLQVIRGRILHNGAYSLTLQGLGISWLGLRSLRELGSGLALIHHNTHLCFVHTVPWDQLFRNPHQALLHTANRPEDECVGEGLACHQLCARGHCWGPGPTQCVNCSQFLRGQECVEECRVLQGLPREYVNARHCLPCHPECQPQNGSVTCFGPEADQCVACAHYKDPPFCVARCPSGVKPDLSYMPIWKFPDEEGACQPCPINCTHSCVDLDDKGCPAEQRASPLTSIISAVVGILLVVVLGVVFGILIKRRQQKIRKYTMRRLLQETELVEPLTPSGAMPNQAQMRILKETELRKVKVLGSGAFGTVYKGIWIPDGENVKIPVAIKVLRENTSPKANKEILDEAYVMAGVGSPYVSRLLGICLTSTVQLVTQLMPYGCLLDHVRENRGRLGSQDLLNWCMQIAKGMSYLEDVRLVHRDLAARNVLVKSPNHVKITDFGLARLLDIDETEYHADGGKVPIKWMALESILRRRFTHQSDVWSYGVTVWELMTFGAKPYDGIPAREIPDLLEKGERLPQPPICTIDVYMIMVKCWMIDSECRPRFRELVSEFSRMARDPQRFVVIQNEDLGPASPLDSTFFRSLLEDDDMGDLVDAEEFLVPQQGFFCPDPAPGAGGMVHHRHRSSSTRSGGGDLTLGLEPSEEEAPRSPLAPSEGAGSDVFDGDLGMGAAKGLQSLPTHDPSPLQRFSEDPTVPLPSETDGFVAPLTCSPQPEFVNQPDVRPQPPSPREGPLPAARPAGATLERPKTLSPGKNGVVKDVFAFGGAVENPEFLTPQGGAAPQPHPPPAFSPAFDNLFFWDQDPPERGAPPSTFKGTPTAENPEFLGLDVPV
# Description: Ba/F3 cells are normally dependent on IL-3 signaling for their proliferation and survival, but can be made dependent on introduced oncogenic signals. We sequentially selected transduced Ba/F3 cells for populations stably expressing HER3 and then HER2. To ensure that all of the proliferative signal could be attributed to HER2/HER3 heterodimers, rather than HER2 homodimers, the 9 C-terminal tyrosines in HER2 were mutated to phenylalanine (HER2YF). We then withdrew IL-3 and supplemented the media with NRG to select for NRG dependent HER2YF/HER3wt cells (2YF/3wt).
# For the 2YF/3wt cells, the parental cells were first transduced with HER3 according to the protocol above and were then spun down at 500×g for 5 min and re-suspended in media supplemented with 10 ng/mL IL-3 and 3 μg/mL puromycin (Invitrogen). Cells were maintained in these conditions for seven days, passaging as required. After seven days the cells were spun down, washed with fresh media, and then used for a subsequent round of transduction according to the protocol above with HER2YF virus. […] The cells were maintained in these conditions for seven days, passaging as required. After seven days the cells were spun down, washed with fresh media, and then suspended in media supplemented with 10 ng/mL of NRG. Cells were maintained in these conditions for seven days to select for a NRG dependent population of 2YF/3wt Ba/F3 cells that were then maintained as described above. The same protocol was used for the 2YF-L755S/3wt, 2YF-YVMA/3wt, and 2YF-VC/3wt cell lines using the indicated constructs.
# Proliferation Assays. […] The following day media was changed to fresh media that contained either DMSO or the indicated concentration of drug plus NRG (50 ng/mL final concentration) as indicated. […] For all normalized assays, proliferation was normalized to the DMSO control condition. All graphs were plotted in GraphPad Prism 6 and fit with a non-linear regression of the log(inhibitor) vs response with a variable slope where shown. All graphs are averages (+/−standard deviation) of biological triplicates each performed in technical triplicate unless otherwise noted. If only one biological replicate was performed standard deviations were derived from the technical replicates.
# Axl+ Ba/F3 cells = biological target: T1, Axl+ Ba/F3 cells (Homo sapiens, UniProt P30530); assay: Ba/F3 proliferation assay, Axl+; conditions: Tables 7 and 8; read-out: Ba/F3 line IC50, Axl+
# T1 sequence (P30530 1-894): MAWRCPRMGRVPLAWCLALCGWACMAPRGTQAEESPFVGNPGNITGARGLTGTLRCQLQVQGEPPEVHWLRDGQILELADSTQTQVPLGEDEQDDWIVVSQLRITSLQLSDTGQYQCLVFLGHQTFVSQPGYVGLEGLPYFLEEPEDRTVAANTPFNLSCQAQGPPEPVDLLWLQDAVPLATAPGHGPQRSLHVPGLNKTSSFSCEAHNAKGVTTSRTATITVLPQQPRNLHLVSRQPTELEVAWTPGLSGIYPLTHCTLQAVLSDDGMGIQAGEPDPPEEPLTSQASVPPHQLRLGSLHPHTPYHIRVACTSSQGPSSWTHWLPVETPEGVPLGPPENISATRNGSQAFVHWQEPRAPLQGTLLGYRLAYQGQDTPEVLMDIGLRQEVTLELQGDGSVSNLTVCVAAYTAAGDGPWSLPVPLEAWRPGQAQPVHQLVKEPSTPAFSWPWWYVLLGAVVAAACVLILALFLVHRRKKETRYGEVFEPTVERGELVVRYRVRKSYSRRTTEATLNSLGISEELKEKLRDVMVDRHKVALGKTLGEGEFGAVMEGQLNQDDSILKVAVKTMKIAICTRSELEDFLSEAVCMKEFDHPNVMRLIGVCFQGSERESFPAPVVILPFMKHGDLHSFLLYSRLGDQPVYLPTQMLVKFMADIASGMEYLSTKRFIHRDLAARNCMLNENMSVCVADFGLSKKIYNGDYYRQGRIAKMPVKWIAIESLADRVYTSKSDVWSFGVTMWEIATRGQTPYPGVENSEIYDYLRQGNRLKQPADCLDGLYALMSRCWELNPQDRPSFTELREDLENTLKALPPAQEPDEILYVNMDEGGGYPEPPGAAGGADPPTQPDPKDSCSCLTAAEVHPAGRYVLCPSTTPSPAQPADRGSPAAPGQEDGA
# Procedure: as §2
# For Axl+ cells, the transduced cells were spun down at 500×g for 5 min and resuspended in media supplemented with 10 ng/mL IL-3 and 3 μg/mL puromycin (Invitrogen). Cells were maintained in these conditions for 7 days, passaging as required. After 7 days the cells were spun down, washed with fresh media, and then suspended in IL-3 free media. The cells were maintained in these conditions for 2 weeks to select for an IL-3 independent population of Axl+ driven cells.
# as §1
SMILES,pIC50 (HER2+/2VE Ba/F3 line),pIC50 [1],GI50 [2] [nM],"pIC50 (HER2+/2VE Ba/F3 line; Mus musculus, BaF3)","pIC50 ([1]; Mus musculus, BaF3)",GI50 (Axl+ Ba/F3 cells) [nM]
CCOc1ccc(-c2ccccc2)cc1Nc1ncnc2[nH]cc(-c3cc[nH]n3)c12 [Cmpd 176],6.66,5.64,29,,,
CCOc1ccc(-c2ccccc2)cc1Nc1ncnc2[nH]nc(-c3cn[nH]c3)c12 [Cmpd 147],,,58.7,6.44,5.87,
CCOc1ccc(-c2ccoc2)cc1Nc1ncnc2[nH]nc(-c3cn[nH]c3)c12 [Cmpd 153],,,17.5,6.55,< 5.48,
COc1ccc(-c2ccoc2)cc1Nc1ncnc2[nH]nc(-c3ccnn3C)c12 [Cmpd 152],,,822,5.59,< 5.00,
COc1ccc(-c2ccnn2C)cc1Nc1ncnc2[nH]nc(-c3ccco3)c12 [Cmpd 66C],,,362,6.19,,
COc1ccc(-c2ccccc2)cc1Nc1ncnc2[nH]nc(-c3ccccc3)c12 [Cmpd 184],,,386,5.89,5.00,527
COc1ccc(-c2ccoc2)cc1Nc1ncnc2[nH]nc(-c3cnn(C)c3)c12 [Cmpd 144B],,,21.4,6.51,< 5.48,
CC(=O)c1cccc(-c2n[nH]c3ncnc(Nc4cc(-c5ccccc5)ccc4C)c23)c1 [Cmpd 5-001A],,,> 3330,< 5.48,< 5.00,> 3330
COc1ccc(-c2cnn(C)c2)cc1Nc1ncnc2[nH]nc(-c3cn[nH]c3)c12 [Cmpd 154C],,,> 10000,< 5.00,< 5.00,
COc1ccc(-c2ccnn2C)cc1Nc1ncnc2[nH]nc(-c3cn[nH]c3)c12 [Cmpd 154A],,,> 10000,< 5.00,< 5.00,
COc1ccc(-c2ccco2)cc1Nc1ncnc2[nH]nc(-c3cn[nH]c3)c12 [Cmpd 53B],,,13.9,7.08,< 5.00,> 10000
CC(=O)c1cccc(-c2n[nH]c3ncnc(Nc4cccc(-c5ccccc5)c4)c23)c1 [Cmpd 186B],,,> 10000,< 5.00,< 5.00,> 10000
COc1ccc(-c2ccc(C#N)s2)cc1Nc1ncnc2[nH]cc(-c3cn[nH]c3)c12 [Cmpd 170],,,687,6.17,,
c1ccc(-c2ccc(Nc3ncnc4[nH]nc(-c5ccccc5)c34)cc2)cc1 [Cmpd 188A],,,> 10000,< 5.00,< 5.00,> 10000
COc1ccc(-c2ccoc2)cc1Nc1ncnc2[nH]nc(-c3ccco3)c12 [Cmpd 57A],,,21,6.34,< 5.00,> 10000
COc1ccc(-c2ccoc2)cc1Nc1ncnc2[nH]cc(-c3ccc4nc[nH]c4c3)c12 [Cmpd 173B],,,32,6.64,,

SMILES,pIC50 (HER2+/2VE Ba/F3 line),pIC50 [1],GI50 [2] [nM],"pIC50 (HER2+/2VE Ba/F3 line; Mus musculus, BaF3)","pIC50 ([1]; Mus musculus, BaF3)",GI50 (Axl+ Ba/F3 cells) [nM]
"COc1ccc(-c2ccccc2)cc1Nc1ncnc2[nH]nc(-c3cccc(C(C)=O)c3)c12 [compound 185, 1-(3-(4-((4-methoxy-[1,1′-biphenyl]-3-yl)amino)-1H-pyrazolo[3,4-d]pyrimidin-3-yl)phenyl)ethanone]",,,148,6.61,5.83,257
COc1ccccc1Nc1ncnc2[nH]nc(-c3cccc(C(C)=O)c3)c12 [Cmpd 187B],,,> 10000,< 5.00,< 5.00,> 10000
COc1ccc(-c2ccccc2)cc1Nc1ncnc2[nH]ncc12 [Cmpd 5-004],,,2590,5.50,< 5.48,6940
COc1ccc(-c2ccccc2)cc1Nc1ncnc2[nH]nc(-c3ccc(C(C)=O)cc3)c12 [Cmpd 191H],,,> 10000,< 5.00,< 5.00,> 10000
COc1ccc(-c2ccoc2)cc1Nc1ncnc2[nH]nc(-c3ccccc3)c12 [Cmpd 144A],,,171,5.97,< 5.48,
COc1ccc(-c2ccccc2)cc1Nc1nc(N)nc2[nH]nc(-c3ccco3)c12 [Cmpd 65],,,4,7.96,8.08,
CNC(=O)c1cc(-c2n[nH]c3ncnc(Nc4cc(-c5ccccc5)ccc4OC)c23)cs1 [Cmpd 45F],,,739,5.99,< 5.00,535
COc1ccc(-c2cccnc2)cc1Nc1ncnc2[nH]nc(-c3ccsc3)c12 [Cmpd 39D],,,> 10000,< 5.00,< 5.00,> 10000
COc1cccc(-c2n[nH]c3ncnc(Nc4cc(-c5ccccc5)ccc4OC)c23)c1 [Cmpd 190A],,,86.8,6.64,6.35,171
CC(=O)c1cccc(-c2n[nH]c3ncnc(Nc4ccc(-c5ccccc5)cc4)c23)c1 [Cmpd 188B],,,> 10000,< 5.00,< 5.00,> 10000
COc1ccc(-c2csc(C)n2)cc1Nc1ncnc2[nH]nc(-c3ccco3)c12 [Cmpd 66A],,,1560,5.63,,
COc1ccc(-c2csc(C)c2)cc1Nc1ncnc2[nH]cc(-c3cn[nH]c3)c12 [Cmpd 172],,,910,6.37,,
COc1ccc(-c2sccc2C)cc1Nc1ncnc2[nH]nc(-c3cn[nH]c3)c12 [Cmpd 154B],,,39.3,6.53,< 5.00,
CCOc1ccc(-c2ccccc2)cc1Nc1ncnc2[nH]cc(-c3cn[nH]c3)c12 [Cmpd 171],,,45,6.74,,
COc1ccc(-c2sccc2C)cc1Nc1ncnc2[nH]nc(-c3ccco3)c12 [Cmpd 66B],,,31,6.68,,
